Tests used:
[1] = Tested for its activity to inhibit the binding of [125I]CCK-33 to Cholecystokinin type B receptor in guinea pig brain
[2] = Tested for its activity to inhibit the binding of [125I]gastrin to gastric glands (gastrin) in guinea pig
[3] = as above; remark: listed apart in the source

IC50 [1] [µM] | IC50 [2] [µM] | IC50 [3] [µM] | SMILES
34 | 14 |  | O=C(Cc1ccccc1)Nc1cc2c3ccccc3nc-2c[nH]1 [N-(9H-beta-Carbolin-3-yl)-2-phenyl-acetamide]
> 100 |  | > 100 | Cn1c(C(=O)Nc2cc3c4ccccc4nc-3c[nH]2)cc2ccccc21 [1-Methyl-1H-indole-2-carboxylic acid (9H-beta-carbolin-3-yl)-amide]
223 | > 100 |  | O=C(Nc1cc2c3ccccc3nc-2c[nH]1)c1ccccc1 [N-(9H-beta-Carbolin-3-yl)-benzamide]

Reference: BindingDB's records for doi:10.1016/S0960-894X(00)80682-4 (1993)
